Laboratory results as given in patent publication US20110086891A1, “Solid Forms of 2-(2,4-Difluorophenyl)-6-(1-(2,6-Difluorophenyl)Ureido)Nicotinamide)” (Vertex Pharmaceuticals Incorporated, priority 2009, published 2011).
In brackets after ≈: the same amount, converted by molar mass. Entries after “also recorded” stand apart in the source; their conditions may differ. Each block holds one compound with its values, some of them ahead of it.

Experiments:
Type in all cases: physicochemical
[1] = Apparent solubilities of Form A at room temperature and at 60° C.; settings: thermodynamic from solid
[2] = Solid form conversion on heating, cooling, storage, slurrying or addition of water (XRPD, VT-XRD); settings: for form conversion upon slurrying in a non-solvate forming solvent: slurry, MeOH and water (MeOH:H2O 1:1)
Protocol: Another form, Form P, was detected during the MeOH re-crystallization step used to prepare Form C from Form A. Form P is characterized below. When variable-temperature X-Ray diffraction (VT-XRD) of Form P was carried out in 5° C. increments from 25 to 50° C. and the resulting solid was cooled back to ambient conditions, it was observed that Form P transitions to Form A at approximately 40° C. and returns to Form P upon cooling back to room temperature. […] Both Form A and Form P are MeOH solvates.
1. Bruker D8 Discover with HighStar array detector with an accelerator voltage of 40 kV and current of 35 mA over a 120 second acquisition time. Each sample was prepared in a nickel sample holder and the subsequent pattern collected over two frames with a 2θ range of 4-41°. Variable temperature X-Ray diffraction (VT-XRD) was accomplished with a DHS900 Anton Paar heating stage with a TCU150 controller with a heating rate between steps of 10° C./min and an equilibration time of 5 minutes at temperature. 2. Siemens D5000 diffractometer using CuKα radiation (40 kV, 40 mA), θ-θ goniometer, automatic divergence and receiving slits, a graphite secondary monochromator and a scintillation counter. The data were collected over an angular 2 theta range of 2° to 42° in continuous scan mode using a step size of 0.02° and a step time of 1 second. Samples were run under ambient conditions and prepared as flat plate specimens using powder as received without grinding. Approximately 1-2 mg of the sample was slightly pressed on a glass slide to obtain a flat surface. Samples run under non-ambient conditions were mounted on a silicon wafer with heat conducting compounds. The sample was then heated to the appropriate temperature at ca. 20° C./min and subsequently held isothermally for ca 1 minute before data collection was initiated. 3. Bruker AXS C2 GADDS Diffractometer using CuKα radiation (40 kV, 40 mA), automated XYZ stage, laser video microscope for auto-sample positioning and a HiStar 2-dimensional area detector. X-Ray optics consists of a single Gobel multilayer mirror coupled with a pinhole collimator of 0.3 mm. Beam divergence, was approximately 4 mm. A θ-θ continuos scan mode was employed with a sample to detector distance of 20 cm which gives an effective 2θ range of 3.2-29.8°. A typical exposure time of a sample in this system would be 120 s. Samples were run under ambient conditions and prepared as flat plate specimens using powder as received without grinding. Approximately 25-50 mg of the sample was gently packed into 12 mm diameter, 0.5 mm deep cavities cut into polished, zero-background (510) silicon wafers (from The Gem Dugout). All specimens were run both stationary and rotated on their own plate during analysis. A further specimen was run using silicon powder as internal standard to correct for any peak displacement. Diffraction data were reported using Cu Kαl (l=1.5406 Å), after the Kαl component had been stripped using EVA, the powder patterns were indexed by the ITO method using WIN-INDEX and the raw lattice constants refined using WIN-METRIC. 4. Shimadzu XRD-6000 X-Ray powder diffractometer using CuKα radiation (40 kV, 40 mA) equipped with a fine-focus X-Ray tube. Divergence and Scattering slids were set at 1° and the receiving slit was set at 0.15 mm. A NaI scintillation detector detected diffracted irradiation. A θ-2θ continuous scan at 3°/min (0.4 sec/0.02° step) from 2.5° to 40° was used. A silicon standard was analyzed each day to check the instrument alignment. Each sample was prepared for analysis by pressing it onto the sample holder. 5. Inel XRG-3000 X-Ray powder diffractometer using CuKα radiation (40 kV, 30 mA). This was equipped with a curved position-sensitive detector. Data was collected in real time over a 2 θ range of 120° at a resolution of 0.03°. Samples were packed in an aluminum holder with a silicon insert and analyzed. A silicon standard was analyzed each day to check for instrument alignment. […]

[3] = Stability studies at 40° C./75% RH (physical and chemical stability, XRPD)
Source text: In some embodiments, less than 25% of the solid form of Compound I decomposes, in some embodiments, less than about 20%, less than about 15%, less than about 10%, less than about 5%, less than about 3%, less than about 1%, less than about 0.5% of the form of Compound I decomposes under the conditions specified. In some embodiments, no detectable amount of the solid form of Compound I decomposes. […] In some embodiments, less than 25% of the solid form of Compound I changes into one or more different physical forms when subjected to specified conditions. In some embodiments, less than about 20%, less than about 15%, less than about 10%, less than about 5%, less than about 3%, less than about 1%, less than about 0.5% of the solid form of Compound I changes into one or more different physical forms of Compound I when subjected to specified conditions. In some embodiments, no detectable amount of the solid form of Compound I changes into one or more physically different solid forms of Compound I.

[4] = Gravimetric vapour sorption (GVS) studies
Protocol: All samples were run on a Hiden IGASorp moisture sorption analyzer running CFRSorp software. Sample sizes were typically 10 mg. A moisture absorption-desorption isotherm was performed as outlined below in Table X (2 scans giving 1 complete cycle). All samples were loaded/unloaded at typical room humidity and temperature (40% RH, 25° C.). All samples were analysed by XRPD post GVS analysis. The standard isotherm was performed at 25° C. at 10% RH intervals over a 0-90% RH range.

[5] = Solubility analysis (in water); settings: 25° C.
Protocol: This was measured by suspending enough Compound I in 0.25 mL of solvent (water) to give a maximum final concentration of ≧10 mg/ml of the parent free form of the compound. The suspension was equilibrated at 25° C. for 24 hrs followed by a pH check and filtration through a glass fibre C96 well plate. The filtrate was then diluted down by a factor of 101. Quantitation was by HPLC (Table XI) with reference to a standard, diluted and undiluted tests were injected. The solubility was calculated by integration of the peak area found at the same retention time as the peak maximum in the standard injection. If there is sufficient solid in the filter plate the XRPD is normally checked for phase changes, hydrate formation, amorphization, crystallization, etc.

[6] = Relative stability studies: slurrying 1:1 mixtures of forms in 3:1 water:ethanol at various temperatures; settings: slurry in 3:1 water:ethanol
Protocol: 1:1 mixtures of Form C and form G of Compound I were slurried in 3:1 water:ethanol at a range of temperatures to determine the relative stability at different temperatures. 5 mg of Form C was mixed with 5 mg of Form G in a glass vial. 1.0 ml of 3:1 water:ethanol was added and the resulting slurry was stirred at 5° C. for 10 days. The resulting solid was isolated by filtration and analysed by XRPD (see FIG. 17).
(§1) The above procedure was repeated at 25, 50 and 80° C.
1:1 mixtures of Form C and Form F were slurried in 3:1 water:ethanol at a range of temperatures to determine the relative stability at different temperatures. […] Ethanol was used in addition to water in order to increase the amount of Compound I in solution and so increase the rate of conversion between forms. Ethanol was chosen as no ethanol solvate of Compound I was known. 10 mg of Form C was mixed with 10 mg of Form F in a glass vial. 2.0 ml of 3:1 water:ethanol was added and the resulting slurry was stirred at 5° C. for 24 hours. Solid was isolated by filtration and analysed by XRPD.
as §1
1:1 mixtures of Form F and Form G were slurried in 3:1 water:ethanol at a range of temperatures to determine the relative stability at different temperatures. 10 mg of Form F was mixed with 10 mg of Form G in a glass vial. 2.0 ml of 3:1 water:ethanol was added and the resulting slurry was stirred at 5° C. for 24 hours. The resulting solid was isolated by filtration and analysed by XRPD. The above procedure was repeated at 25, 50 and 70° C. 70° C. was used instead of 80° C. in an attempt to reduce degradation.

- solubility ([1]; organic solvent or mixture, 60° C., 1-Butanol): 2900 µg/mL (≈ 7.17 mM)
- solubility ([1]; organic solvent or mixture, 60° C., Butyl Acetate): 1900 µg/mL (≈ 4.7 mM)
- solubility ([1]; organic solvent or mixture, room temperature, 1-Butanol): 2000 µg/mL (≈ 4.95 mM)
- solubility ([1]; organic solvent or mixture, room temperature, 2-Butanone): 3400 µg/mL (≈ 8.41 mM)
- solubility ([1]; organic solvent or mixture, room temperature, 2-Propanol): < 800 µg/mL
- solubility ([1]; organic solvent or mixture, room temperature, 2-Propyl Acetate): 2900 µg/mL (≈ 7.17 mM)
- solubility ([1]; organic solvent or mixture, room temperature, Acetone): 6400 µg/mL (≈ 15.8 mM)
- solubility ([1]; organic solvent or mixture, room temperature, Acetonitrile): 3800 µg/mL (≈ 9.4 mM)
- solubility ([1]; organic solvent or mixture, room temperature, Dimethylformamide): > 100000 µg/mL
- solubility ([1]; organic solvent or mixture, room temperature, Ethanol): 5700 µg/mL (≈ 14.1 mM)
- solubility ([1]; organic solvent or mixture, room temperature, Ethyl Acetate): 7200 µg/mL (≈ 17.8 mM)
- solubility ([1]; organic solvent or mixture, room temperature, Heptane): < 900 µg/mL
- solubility ([1]; organic solvent or mixture, room temperature, Methanol): 5700 µg/mL (≈ 14.1 mM)
- solubility ([1]; organic solvent or mixture, room temperature, Methylene Chloride): < 800 µg/mL
- solubility ([1]; organic solvent or mixture, room temperature, Tetrahydrofuran): 1500 µg/mL (≈ 3.71 mM)
- solubility ([1]; room temperature, Water): < 900 µg/mL
- form conversion upon slurrying in a non-solvate forming solvent [2]: become crystalline Form C
SMILES: NC(=O)c1ccc(N(C(N)=O)c2c(F)cccc2F)nc1-c1ccc(F)cc1F [Form A, 2-(2,4-difluorophenyl)-6-(1-(2,6-difluorophenyl)ureido)nicotinamide•MeOH]
- form conversion on cooling ([2]; cooling): convert to Form P upon cooling below about 50 °C
- form conversion on heating [2]: become crystalline Form C upon heating to 100 °C
- results of stability studies as seen by XRPD (before and after spectra) [3]: before and after spectra illustrate formation of Form C
- form conversion upon storage ([3]; 40° C./75% RH): become Form C described herein after one to four weeks; also recorded: convert to Form C upon storage at 40° C./75% RH for one week or longer

- temperature of transition of Form P to Form A ([2]; VT-XRD, 5° C. increments from 25 to 50° C.): approximately 40 °C
- form conversion upon slurrying in a non-solvate forming solvent [2]: convert to Form C
SMILES: NC(=O)c1ccc(N(C(N)=O)c2c(F)cccc2F)nc1-c1ccc(F)cc1F [Form P, 2-(2,4-difluorophenyl)-6-(1-(2,6-difluorophenyl)ureido)nicotinamide•MeOH]
- form conversion on heating [2]: convert to Form A upon heating to 50 °C and then to Form C upon heating to 100 °C
- relative stability of Form A and Form P ([2]; room temperature, VT-XRD): the more stable of the two at room temperature
- results of stability studies as seen by XRPD (before and after spectra) [3]: before and after spectra illustrate formation of Form C

- total weight gain in water at 40% RH ([4]; 40% RH): 1%
- weight gain in water at 90% RH [4]: 1.1%
- solubility in water [5]: at least 0.021 mg/mL
- time remaining chemically stable ([3]; 40° C./75% RH): at least 2 weeks
- time remaining in substantially the same physical form ([3]; 40° C./75% RH): at least 2 weeks
SMILES: NC(=O)c1ccc(N(C(N)=O)c2c(F)cccc2F)nc1-c1ccc(F)cc1F [Form F, 2-(2,4-difluorophenyl)-6-(1-(2,6-difluorophenyl)ureido)nicotinamide]
- fate of the form on slurrying [6]: At 5 and 25° C., Form F was observed to convert to Form G; also recorded: not recovered after slurrying at any of the four temperatures

- form conversion after the addition of water ([2]; 20° C. to 50° C., 2, 5 and 24 hours after addition of water): convert into Form Q
- hygroscopicity [4]: highly hygroscopic
- total water gain (in weight) at 10% RH ([4]; 10% RH): 1%
- weight gain in water at 90% RH [4]: more than 8%
- solubility in water [5]: at least 0.020 mg/mL
- results of stability studies as seen by XRPD (before and after spectra) [3]: before and after spectra are similar
- time remaining chemically stable ([3]; 40° C./75% RH): at least two
- time remaining in substantially the same physical form ([3]; 40° C./75% RH): at least two
- relative stability between forms [6]: more stable than Form F at 5 °C
SMILES: NC(=O)c1ccc(N(C(N)=O)c2c(F)cccc2F)nc1-c1ccc(F)cc1F [Form G, 2-(2,4-difluorophenyl)-6-(1-(2,6-difluorophenyl)ureido)nicotinamide]
- form conversion on heating [2]: converted into Form F on heating above about 130 °C
